In US12534465B2, “5H-pyrrolo[3,2-d]pyrimidine-2,4-diamino compounds and antibody conjugates thereof” (SUTRO BIOPHARMA, INC., priority 2019, dated 2026):

Columns and labels:
Assay type in all cases: cell-based
[1] = target: T1, human TLR7 (Homo sapiens, UniProt Q9NYK1); test: HEK293-humanTLR7 SEAP reporter assay (Example 8); settings: HEK293-hTLR7 SEAP reporter cells, 24 hrs
T1 construct: host or cells: HEK293
T1 sequence (Q9NYK1 27-1049): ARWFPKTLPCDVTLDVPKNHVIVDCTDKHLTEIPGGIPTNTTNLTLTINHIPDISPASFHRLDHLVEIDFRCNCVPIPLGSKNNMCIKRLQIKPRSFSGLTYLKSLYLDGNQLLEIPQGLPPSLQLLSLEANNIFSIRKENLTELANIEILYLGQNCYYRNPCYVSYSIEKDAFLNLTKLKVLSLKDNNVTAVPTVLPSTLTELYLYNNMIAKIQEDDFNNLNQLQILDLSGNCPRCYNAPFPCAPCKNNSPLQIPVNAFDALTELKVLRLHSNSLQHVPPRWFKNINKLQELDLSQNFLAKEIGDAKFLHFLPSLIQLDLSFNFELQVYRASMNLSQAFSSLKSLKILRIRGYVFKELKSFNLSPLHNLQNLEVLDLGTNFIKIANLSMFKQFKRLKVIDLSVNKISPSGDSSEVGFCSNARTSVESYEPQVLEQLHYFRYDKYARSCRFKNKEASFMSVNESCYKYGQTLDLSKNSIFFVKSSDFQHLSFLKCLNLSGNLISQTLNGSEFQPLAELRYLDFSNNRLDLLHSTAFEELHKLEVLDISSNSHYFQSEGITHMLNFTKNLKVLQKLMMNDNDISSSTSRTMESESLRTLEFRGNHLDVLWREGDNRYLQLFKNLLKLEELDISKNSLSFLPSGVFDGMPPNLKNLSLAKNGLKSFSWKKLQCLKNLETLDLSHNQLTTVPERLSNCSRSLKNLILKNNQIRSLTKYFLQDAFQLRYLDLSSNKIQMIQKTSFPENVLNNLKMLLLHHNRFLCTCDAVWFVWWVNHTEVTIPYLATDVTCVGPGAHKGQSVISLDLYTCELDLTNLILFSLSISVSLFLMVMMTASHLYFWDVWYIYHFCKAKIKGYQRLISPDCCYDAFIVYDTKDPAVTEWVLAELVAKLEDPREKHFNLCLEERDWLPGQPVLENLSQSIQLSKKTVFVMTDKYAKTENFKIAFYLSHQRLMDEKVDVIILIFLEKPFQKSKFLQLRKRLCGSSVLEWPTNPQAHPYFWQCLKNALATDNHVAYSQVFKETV
Description: (§1) In this example, the in vitro activity of compounds to activate human TLR7 (or human TLR8 or mouse TLR7) pathway was evaluated on HEK293 reporter cells transfected with human TLR7 (or human TLR8 or mouse TLR7) and an inducible SEAP (secreted embryonic alkaline phosphatase) reporter gene. The SEAP reporter gene is placed under the control of the IFN-β minimal promoter fused to five NF-κB and AP-1-binding sites. Stimulation with a TLR7 agonist activates NF-κB and AP-1 which induces the production of SEAP. Levels of SEAP were determined by HEK-Blue Detection medium.
(§2) The in vitro activity of compounds on TLR7 (human and mouse) and TLR8 (human only) reporter cell lines was assessed as follows. 5-(2-methoxy-4-(piperazin-1-ylmethyl)benzyl)-N4-pentyl-5H-pyrrolo[3,2-d]pyrimidine-2,4-diamine (Compound 1) is a compound used for comparison and has the structure shown below:
(§3) HEK293-humanTLR7 (hTLR7), HEK293-mouseTLR7 (mTLR7) and HEK293-humanTLR8 (hTLR8) reporter cell lines were purchased from Invivogen and cell lines were maintained in the manufacturer's recommended culture medium with required supplemental antibiotics. On the day of assay, the cells were harvested with Accutase and counted by the Vi-CELL Cell Viability Analyzers. Cells were resuspended in HEK blue detection medium and a total of 10,000 cells were seeded in each well of a 384-well flat bottom plate. Serial dilutions of test compounds (1:4 serial dilution starting from 5 μM) were added into treatment wells and assay plates were cultured at 37° C. in a CO2 incubator for 24 hrs. The plates were then read by spectrophotometry at 640 nm. Data was fitted with non-linear regression analysis, using a log(inhibitor) vs. response-variable slope, 3-parameter fit with GraphPad Prism. There result was reported in Table 1 as EC50 (the midpoint of the curve, or concentration at which 50% of the maximum effect was observed).

[2] = target: T2, human TLR8 (Homo sapiens, UniProt Q9NR97); test: HEK293-humanTLR8 SEAP reporter assay (Example 8); settings: HEK293-hTLR8 SEAP reporter cells, 24 hrs
T2 construct: host or cells: HEK293
T2 sequence (Q9NR97 27-1041): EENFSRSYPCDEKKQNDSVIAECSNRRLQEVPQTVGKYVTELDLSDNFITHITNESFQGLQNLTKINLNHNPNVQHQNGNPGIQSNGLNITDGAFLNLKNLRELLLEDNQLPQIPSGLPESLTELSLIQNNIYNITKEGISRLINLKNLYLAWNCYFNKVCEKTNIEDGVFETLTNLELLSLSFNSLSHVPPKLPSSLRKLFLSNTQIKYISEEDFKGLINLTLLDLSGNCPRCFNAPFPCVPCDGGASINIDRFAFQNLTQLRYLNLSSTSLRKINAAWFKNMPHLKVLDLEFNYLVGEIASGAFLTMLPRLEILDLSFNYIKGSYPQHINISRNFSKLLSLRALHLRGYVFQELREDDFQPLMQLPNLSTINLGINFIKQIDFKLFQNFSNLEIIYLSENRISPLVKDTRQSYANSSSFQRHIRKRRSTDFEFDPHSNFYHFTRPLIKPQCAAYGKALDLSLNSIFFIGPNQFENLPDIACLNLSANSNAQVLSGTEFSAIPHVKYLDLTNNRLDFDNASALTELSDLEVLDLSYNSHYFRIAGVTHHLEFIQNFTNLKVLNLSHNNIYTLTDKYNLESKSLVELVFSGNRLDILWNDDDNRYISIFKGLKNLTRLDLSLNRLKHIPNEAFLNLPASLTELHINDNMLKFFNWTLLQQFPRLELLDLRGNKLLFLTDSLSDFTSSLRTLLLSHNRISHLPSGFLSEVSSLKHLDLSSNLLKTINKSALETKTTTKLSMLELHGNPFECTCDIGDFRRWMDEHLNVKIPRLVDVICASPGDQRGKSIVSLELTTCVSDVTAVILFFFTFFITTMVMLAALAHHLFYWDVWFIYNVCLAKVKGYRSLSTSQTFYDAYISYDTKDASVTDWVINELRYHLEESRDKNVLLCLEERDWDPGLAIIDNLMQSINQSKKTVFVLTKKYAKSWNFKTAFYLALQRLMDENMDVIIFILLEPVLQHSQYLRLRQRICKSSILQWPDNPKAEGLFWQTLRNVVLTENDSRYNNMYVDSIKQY
Description: as §1, §2, §3

[3] = target: T3, mouse TLR7 (Mus musculus, UniProt P58681); test: HEK293-mouseTLR7 SEAP reporter assay (Example 8); settings: HEK293-mTLR7 SEAP reporter cells, 24 hrs
T3 construct: host or cells: HEK293
T3 sequence (P58681 27-1050): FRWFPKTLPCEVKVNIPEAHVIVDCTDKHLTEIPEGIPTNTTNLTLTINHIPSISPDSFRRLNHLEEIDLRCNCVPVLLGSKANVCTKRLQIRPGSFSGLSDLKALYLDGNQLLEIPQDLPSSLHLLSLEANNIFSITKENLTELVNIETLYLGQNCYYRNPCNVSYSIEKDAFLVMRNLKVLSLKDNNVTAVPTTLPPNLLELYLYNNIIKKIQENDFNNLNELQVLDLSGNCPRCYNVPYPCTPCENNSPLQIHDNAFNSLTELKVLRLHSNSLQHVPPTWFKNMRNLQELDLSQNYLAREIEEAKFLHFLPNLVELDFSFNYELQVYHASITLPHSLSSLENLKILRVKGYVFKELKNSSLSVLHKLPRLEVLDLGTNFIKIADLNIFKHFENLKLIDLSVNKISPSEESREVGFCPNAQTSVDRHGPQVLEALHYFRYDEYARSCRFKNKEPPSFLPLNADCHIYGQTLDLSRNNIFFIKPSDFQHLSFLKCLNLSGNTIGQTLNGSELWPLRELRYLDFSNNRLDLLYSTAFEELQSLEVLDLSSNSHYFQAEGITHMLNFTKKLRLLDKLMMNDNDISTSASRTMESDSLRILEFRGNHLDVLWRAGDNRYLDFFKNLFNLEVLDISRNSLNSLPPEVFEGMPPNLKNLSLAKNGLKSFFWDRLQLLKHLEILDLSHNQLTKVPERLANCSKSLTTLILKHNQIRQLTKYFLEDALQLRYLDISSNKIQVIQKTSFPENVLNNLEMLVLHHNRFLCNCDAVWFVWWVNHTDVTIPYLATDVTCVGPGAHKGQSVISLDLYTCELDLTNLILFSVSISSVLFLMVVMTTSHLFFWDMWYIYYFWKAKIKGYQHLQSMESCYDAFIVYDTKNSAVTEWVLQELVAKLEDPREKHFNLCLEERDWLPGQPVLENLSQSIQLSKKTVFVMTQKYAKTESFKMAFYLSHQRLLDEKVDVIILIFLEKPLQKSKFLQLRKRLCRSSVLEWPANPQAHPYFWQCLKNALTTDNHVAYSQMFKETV
Description: as §1, §2, §3

EC50 [1] [nM]	EC50 [2] [nM]	EC50 [3] [nM]	Compound
13.4	1140	16.2	CCCCCNc1nc(N)nc2ccn(Cc3ccc(CN4CC5(CNC5)C4)cc3OC)c12 [compound 9]
370	> 5000	–	CCCCCNc1nc(N)nc2ccn(Cc3ccc(CN4CCC(c5nnc6n5CCNC6)CC4)cc3OC)c12 [compound 12]
4.8	> 5000	24.6	CCCCCNc1nc(N)nc2ccn(Cc3ccc(CN4CC5CCC4CN5)cc3OC)c12 (stereo not shown) [compound 15]
> 5000	> 5000	> 5000	CNC1CN(Cc2ccc(Cn3ccc4nc(N)nc(NCc5cc(C)on5)c43)c(OC)c2)C1 [Compound 6, 5-(2-methoxy-4-((3-(methylamino)azetidin-1-yl)methyl)benzyl)-N4-((5-methylisoxazol-3-yl)methyl)-5H-pyrrolo[3,2-d]pyrimidine-2,4-diamine]
16.5	> 5000	17.6	CCCCCNc1nc(N)nc2ccn(Cc3ccc(CN4CC5(CCNCC5)C4)cc3OC)c12 [compound 8]
0.1	> 5000	6.7	CCCCCNc1nc(N)nc2ccn(Cc3ccc(CN4CC5(C4)CN(C(=O)OC(C)(C)C)CCO5)cc3OC)c12 [Compound 1.7, tert-butyl 2-[[4-[[2-amino-4-(pentylamino)pyrrolo[3,2-d]pyrimidin-5-yl]methyl]-3-methoxy-phenyl]methyl]-5-oxa-2,8-diazaspiro[3.5]nonane-8-carboxylate]
1010	> 5000	–	CNC1CN(Cc2ccc(Cn3ccc4nc(N)nc(NCc5nocc5C)c43)c(OC)c2)C1 [Compound 5]
108	> 5000	322	CCCCCNc1nc(N)nc2ccn(Cc3ccc(CN4CC5CCCC(C4)NC5)cc3OC)c12 (stereo not shown) [compound 14]
0.5	374	2.7	CCCCCNc1nc(N)nc2ccn(Cc3ccc(CN4CC(N)C4)cc3OC)c12 [Compound 13, 5-(4-((3-aminoazetidin-1-yl)methyl)-2-methoxybenzyl)-N4-pentyl-5H-pyrrolo[3,2-d]pyrimidine-2,4-diamine]
92.3	> 5000	222	CCCCCNc1nc(N)nc2ccn(Cc3ccc(CN4CC(C5CCNCC5)C4)cc3OC)c12 [compound 11]
48.8	> 5000	112	CCCCCNc1nc(N)nc2ccn(Cc3ccc(CN4CCC5(CCNCC5)CC4)cc3OC)c12 [compound 7]
